From US12522582B2 (Gilead Sciences, Inc., priority 2022, dated 2026)
pEC50: −log10 of the molar value. Like-named read-outs stand apart in the source and are kept apart here.

How the values were obtained:
[1] = MT-4 CC50 Assay (CellTiter Glo); type: cell-based; conditions: human, MT-4 cells, luminescence, read-out: CC50-MT4
Experimental: Compounds were tested in 384-well plates: 18 compounds in duplex. Compounds were diluted in 7 points, 3-fold with DMSO by Bravo. Assay plate, which contains 20 uL medium with compounds, was seeded 2000 MT-4 cells in 20 uL/well by Multi-drop to start the assay. The plate was incubated at 37° C. for 5 days. On 6th day, the CellTiter Glo 40 uL was added in each well. Luminescence was read by Victor II.

HSV-2 virus (MS strain) = assay: HSV-2 Cellomics Assay (immunofluorescence of HSV protein gD in infected ARPE-19 cells); conditions: Human alphaherpesvirus 2, ARPE-19, 16 h
Experimental: Compounds were tested for their ability to inhibit HSV-2 replication by monitoring the expression of the HSV protein gD using a high-throughput immunofluorescence-based assay. 10-dose, 3-fold serial dilutions of compounds were prepared at starting concentrations of 0.2 or 2 mM in 100% DMSO. […] The final starting concentration in the assay was either 1 or 10 μM. DMSO (no compound) and pritelivir were included on each microplate as negative and positive controls, respectively.
Prior to confluence, cells were transferred to a centrifuge tube and spun for 5 minutes at 1000 rpm. Cells were resuspended in assay medium (DMEM/F-12 Glutamax, 2% FBS, 1% Penicillin-Streptomycin) and counted. Cell density was adjusted to 150,000 cells/ml and infected with HSV-2 virus (MS strain, ATCC cat #VR-540) at a MOI of 0.06 in a 50 ml conical tube for 1 hour under constant rocking. Cells were then spun for 5 minutes at 1000 rpm and the media replaced with assay medium containing either 2% FBS or 10% human serum (EMD Millipore cat #S1-100 ML). 50 μl of the infection suspension were added into microplate wells that were pre-spotted with compounds (7,500 cells per well). Plates were incubated for 16 hours at 37° C.
After a 30-minute incubation at room temperature, plates were washed 4 times with 100 μl/well of PBS using a Biotek plate washer. […] Plates were washed 4 times again and 50 μl of DPBS were added to all wells prior to sealing the plates with a black adhesive seal. Fluorescence was measured on a Cellomics plate reader.
Data analysis was carried out using the Thermo Scientific HCS Studio software. Briefly, cells were identified using the DAPI nuclear stain and thresholds were set to filter cells out based on shape and size. A second threshold based on green fluorescence intensity (detection of HSV-2 gD) was set to identify HSV-2 infected cells. Data was reported as the average fluorescence intensity of HSV-2 infected cells.

[2] = read-out: EC50-HSV2-10% Human Serum

| SMILES | CC50 at 5 days [1] | pEC50 (HSV-2 virus (MS strain); [2]) | pEC50 (HSV-2 virus (MS strain); read-out: EC50-HSV2-FBS) |
| --- | --- | --- | --- |
| C[S@](=N)(=O)c1ccc2c(c1)N(C(=O)[C@@H]1Cc3ccc(-c4ccccn4)cc3C1)CC2 (single isomer, unassigned) [Example 33] | ≥ 50000 nM | 5.86 | 6.78 |
| NS(=O)(=O)c1cc2c(cc1F)CCN2C(=O)C1Cc2ccc(-c3ccccn3)cc2C1 (stereo not drawn) [Example 8] | 42300 nM | 4.64 | 8.00 |
| NS(=O)(=O)c1ccc2c(c1)N(C(=O)C1Cc3ccc(-c4cscn4)cc3C1)CC2 (stereo not drawn) [Example 19] | 37700 nM | ≤ 4.60 | 7.64 |
| NS(=O)(=O)c1ccc2c(c1)N(C(=O)C1Cc3ccc(-c4cocn4)cc3C1)CC2 (stereo not drawn) [Example 23] | ≥ 50000 nM | 4.96 | 7.72 |
| NS(=O)(=O)c1ccc2c(c1)N(C(=O)C1Cc3cc(-c4ccccn4)ccc3O1)CC2 (stereo not drawn) [Example 36] | ≥ 50000 nM | ≤ 4.60 | 7.15 |
| NS(=O)(=O)c1cc2c(cc1F)CCN2C(=O)C1Cc2cc(-c3ccccn3)ccc2O1 (stereo not drawn) [Example 37] | ≥ 50000 nM | 4.71 | 8.00 |
| C[C@@H]1Cc2cc(Br)c(S(N)(=O)=O)cc2N1C(=O)[C@@H]1Cc2ccc(-c3ccccn3)cc2C1 [Example 38, (R)-5-bromo-2-methyl-1-((R)-5-(pyridin-2-yl)-2,3-dihydro-1H-indene-2-carbonyl)indoline-6-sulfonamide] | ≥ 10000 nM | 6.27 | 7.72 |
| C[S@](=N)(=O)c1cc2c(cc1F)CCN2C(=O)[C@@H]1Cc2ccc(-c3ccccn3)cc2C1 [Example 41, (S)-(5-fluoro-1-((R)-5-(pyridin-2-yl)-2,3-dihydro-1H-indene-2-carbonyl)indolin-6-yl)(imino)(methyl)-16-sulfanone] | ≥ 10000 nM | 6.85 | 7.43 |
| C[C@@H]1[C@@H](C)c2cc(F)c(S(N)(=O)=O)cc2N1C(=O)[C@@H]1Cc2ccc(-c3ccccn3)cc2C1 [Example 46, (2R,3S)-5-fluoro-2,3-dimethyl-1-((R)-5-(pyridin-2-yl)-2,3-dihydro-1H-indene-2-carbonyl)indoline-6-sulfonamide] | ≥ 10000 nM | 6.84 | 7.80 |
| C[C@@H]1c2cc(F)c(S(N)(=O)=O)cc2N(C(=O)[C@@H]2Cc3ccc(-c4ccccn4)cc3C2)[C@@H]1C [Example 48, (2R,3R)-5-fluoro-2,3-dimethyl-1-((R)-5-(pyridin-2-yl)-2,3-dihydro-1H-indene-2-carbonyl)indoline-6-sulfonamide] | ≥ 10000 nM | 6.98 | 7.80 |
| C[C@@H]1Cc2cc(F)c(S(N)(=O)=O)cc2N1C(=O)[C@@H]1Cc2ccc(-c3cc(F)ccc3Cl)cc2C1 [Example 50, (R)-1-((R)-5-(2-chloro-5-fluorophenyl)-2,3-dihydro-1H-indene-2-carbonyl)-5-fluoro-2-methylindoline-6-sulfonamide] | ≥ 10000 nM | 6.67 | 7.21 |
| C[S@](=N)(=O)c1cc2c(cc1F)CCN2C(=O)[C@@H]1Cc2ccc(-c3cc(F)ccc3F)cc2C1 [Example 53] | ≥ 10000 nM | 6.38 | 7.32 |
| C[C@@H]1Cc2ccc(S(N)(=O)=O)cc2N1C(=O)C1Cc2cc(-c3ccccn3)ccc2O1 (stereo partly drawn) [Example 57] | ≥ 10000 nM | 6.42 | 7.46 |
| C[C@@H]1Cc2cc(F)c(S(N)(=O)=O)cc2N1C(=O)[C@@H]1Cc2ccc(-c3cc(F)cc(F)c3F)cc2C1 [Example 62, (R)-5-fluoro-2-methyl-1-((R)-5-(2,3,5-trifluorophenyl)-2,3-dihydro-1H-indene-2-carbonyl)indoline-6-sulfonamide] | ≥ 10000 nM | 6.50 | 7.23 |
| Cc1cc2c(cc1S(N)(=O)=O)N(C(=O)[C@@H]1Cc3ccc(-c4ccccn4)cc3C1)[C@H](C)C2 [Example 63, (R)-2,5-dimethyl-1-((R)-5-(pyridin-2-yl)-2,3-dihydro-1H-indene-2-carbonyl)indoline-6-sulfonamide] | ≥ 10000 nM | 6.04 | 7.60 |
| NS(=O)(=O)c1ccc2c(c1)N(C(=O)[C@@H]1Cc3ccc(-c4ccccn4)cc3C1)CC21CC1 [Example 64, (R)-1′-(5-(pyridin-2-yl)-2,3-dihydro-1H-indene-2-carbonyl)spiro[cyclopropane-1,3′-indoline]-6′-sulfonamide] | ≥ 10000 nM | ≤ 5.00 | 6.94 |
| CC[C@@H]1Cc2ccc(S(N)(=O)=O)cc2N1C(=O)[C@@H]1Cc2ccc(-c3ccccn3)cc2C1 [Example 68, (R)-2-ethyl-1-((R)-5-(pyridin-2-yl)-2,3-dihydro-1H-indene-2-carbonyl)indoline-6-sulfonamide] | ≥ 10000 nM | 6.63 | 7.51 |

| SMILES | CC50 at 5 days [1] | pEC50 (HSV-2 virus (MS strain); [2]) | pEC50 (HSV-2 virus (MS strain); read-out: EC50-HSV2-FBS) |
| --- | --- | --- | --- |
| NS(=O)(=O)c1ccc2c(c1)N(C(=O)C1Cc3ccc(-n4cccn4)cc3C1)CC2 (stereo not drawn) [Example 78, 1-(5-(1H-pyrazol-1-yl)-2,3-dihydro-1H-indene-2-carbonyl)indoline-6-sulfonamide] | ≥ 50000 nM | 4.68 | 7.19 |
| CC1CN(C(=O)[C@@H]2Cc3cc(-c4ccccn4)ccc3[C@H]2C)c2cc(S(N)(=O)=O)ccc21 (stereo partly drawn) [Example 101, 3-methyl-1-((1S,2R)-1-methyl-5-(pyridin-2-yl)-2,3-dihydro-1H-indene-2-carbonyl)indoline-6-sulfonamide] | – | – | 5.17 |
| CC1CN(C(=O)[C@H]2Cc3cc(-c4ccccn4)ccc3[C@@H]2C)c2cc(S(N)(=O)=O)ccc21 (stereo partly drawn) [Example 102, 3-methyl-1-((1R,2S)-1-methyl-5-(pyridin-2-yl)-2,3-dihydro-1H-indene-2-carbonyl) indoline-6-sulfonamide] | – | 6.04 | 6.80 |
| C[C@H]1CN(C(=O)[C@@H]2Cc3ccc(-c4ccccn4)cc3C2)c2cc(S(N)(=O)=O)ccc21 [Example 107, (R)-3-methyl-1-((R)-5-(pyridin-2-yl)-2,3-dihydro-1H-indene-2-carbonyl)indoline-6-sulfonamide] | – | ≤ 4.60 | 7.02 |
| C[C@@H]1CN(C(=O)[C@@H]2Cc3ccc(-c4ccccn4)cc3C2)c2cc(S(N)(=O)=O)ccc21 [Example 108, (S)-3-methyl-1-((R)-5-(pyridin-2-yl)-2,3-dihydro-1H-indene-2-carbonyl)indoline-6-sulfonamide] | – | – | 6.55 |
| CC1(C)CN(C(=O)C2Cc3ccc(-c4ccccn4)cc3C2)c2cc(S(N)(=O)=O)ccc21 (stereo not drawn) [Example 109] | – | – | 6.41 |
| NS(=O)(=O)c1cc2c(cc1Br)CCN2C(=O)C1Cc2ccc(-c3ccccn3)cc2C1 (stereo not drawn) [Example 110, 5-Bromo-1-(5-(pyridin-2-yl)-2,3-dihydro-1H-indene-2-carbonyl)indoline-6-sulfonamide] | – | ≤ 4.60 | 7.59 |
| COc1cc2c(cc1S(N)(=O)=O)N(C(=O)C1Cc3ccc(-c4ccccn4)cc3C1)CC2 (stereo not drawn) [Example 111, 5-Methoxy-1-[5-(2-pyridyl)indane-2-carbonyl]indoline-6-sulfonamide] | – | ≤ 4.60 | 5.76 |
| CC[C@H]1Cc2cc(F)c(S(N)(=O)=O)cc2N1C(=O)[C@@H]1Cc2ccc(-c3ccccn3)cc2C1 [Example 114] | – | 6.03 | 6.89 |
| NS(=O)(=O)c1ccc2c(c1)N(C(=O)C1Cc3ccc(-c4ccccn4)cc3O1)CC2 (stereo not drawn) [Example 115, 1-(6-(pyridin-2-yl)-2,3-dihydrobenzofuran-2-carbonyl)indoline-6-sulfonamide] | – | 5.79 | 7.00 |
| NS(=O)(=O)c1ccc2c(c1)N(C(=O)[C@@H]1Cc3ccc(-c4ncccn4)cc3C1)CC2 [Example 133, (R)-1-(5-(pyrimidin-2-yl)-2,3-dihydro-1H-indene-2-carbonyl)indoline-6-sulfonamide] | – | 5.21 | 6.99 |
| NS(=O)(=O)c1ccc2c(c1)N(C(=O)[C@@H]1Cc3ccc(-c4cccc5ccccc45)cc3C1)CC2 [Example 134, (R)-1-(5-(naphthalen-1-yl)-2,3-dihydro-1H-indene-2-carbonyl)indoline-6-sulfonamide] | – | 5.51 | 6.64 |
| C[C@@H]1CN(C(=O)[C@H]2Cc3cc(-c4ccccn4)c(F)cc3O2)c2cc(S(N)(=O)=O)c(F)cc21 [Example 136, (S)-5-fluoro-1-((R)-6-fluoro-5-(pyridin-2-yl)-2,3-dihydrobenzofuran-2-carbonyl)-3-methylindoline-6-sulfonamide] | – | 5.65 | 7.05 |
| C[C@H]1CN(C(=O)[C@H]2Cc3cc(-c4ccccn4)c(F)cc3O2)c2cc(S(N)(=O)=O)c(F)cc21 [Example 137, (R)-5-fluoro-1-((R)-6-fluoro-5-(pyridin-2-yl)-2,3-dihydrobenzofuran-2-carbonyl)-3-methylindoline-6-sulfonamide] | – | 6.27 | 6.89 |
| C[C@H]1c2ccc(-c3ccccn3)cc2C[C@@H]1C(=O)N1C[C@H](C(F)(F)F)c2cc(F)c(S(N)(=O)=O)cc21 [Example 139, (R)-5-fluoro-1-((1R,2S)-1-methyl-5-(pyridin-2-yl)-2,3-dihydro-1H-indene-2-carbonyl)-3-(trifluoromethyl)indoline-6-sulfonamide] | – | 5.77 | 7.13 |
| C[C@@H]1Cc2cc(F)c(S(N)(=O)=O)cc2N1C(=O)[C@H]1Cc2ccc(-c3ccccn3)cc2C1 [Example 141, (R)-5-fluoro-2-methyl-1-((S)-5-(pyridin-2-yl)-2,3-dihydro-1H-indene-2-carbonyl)indoline-6-sulfonamide] | – | 5.58 | 6.53 |
